Read-outs that look alike come from different tables or passages of the source.

Test [1] has as its target PI3-Kα (Mus musculus (Mouse), UniProt P42337). The test is described as follows: PI3-Kα biochemical assay (in vitro kinase assay, fluorescence polarization).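 Note: Insect-cell-expressed mouse p110/p85 complex converting PI(4,5)P2, product PI(3,4,5)P3 detected by displacing TAMRA-tagged PI(3,4,5)P3 from Grip1 PH domain, lower polarization means more product, room temperature.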 The settings on record: Ki calculated from IC50, [ATP]=30 uM, Km=25 uM.
For test [2], the target named is mTOR (Homo sapiens (Human), UniProt P42345).
Test [3] concerns PI3-K (phosphorylation of AKT at serine 473) in BT20 cells. The test is described as follows: PI3-Kα cellular assay (phospho-AKT Ser473 ELISA in BT20 cells).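 Note: lysates read by ELISA with TMB colour at 450 nm, cells given 0.5% DMSO vehicle serve as positive control and cell-free wells as negative control, duplicate wells per concentration.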 The settings on record: Homo sapiens, BT-20, 1 h.
[4] abbreviates: read-out: S473 pAKT 10% FBS IC50 (μM).
Where [5] appears, read: read-out: S473 pAKT 0.5% FBS IC50 (μM).

PI3-Kα, sequence (P42337 whole entry, the tested form may be a part): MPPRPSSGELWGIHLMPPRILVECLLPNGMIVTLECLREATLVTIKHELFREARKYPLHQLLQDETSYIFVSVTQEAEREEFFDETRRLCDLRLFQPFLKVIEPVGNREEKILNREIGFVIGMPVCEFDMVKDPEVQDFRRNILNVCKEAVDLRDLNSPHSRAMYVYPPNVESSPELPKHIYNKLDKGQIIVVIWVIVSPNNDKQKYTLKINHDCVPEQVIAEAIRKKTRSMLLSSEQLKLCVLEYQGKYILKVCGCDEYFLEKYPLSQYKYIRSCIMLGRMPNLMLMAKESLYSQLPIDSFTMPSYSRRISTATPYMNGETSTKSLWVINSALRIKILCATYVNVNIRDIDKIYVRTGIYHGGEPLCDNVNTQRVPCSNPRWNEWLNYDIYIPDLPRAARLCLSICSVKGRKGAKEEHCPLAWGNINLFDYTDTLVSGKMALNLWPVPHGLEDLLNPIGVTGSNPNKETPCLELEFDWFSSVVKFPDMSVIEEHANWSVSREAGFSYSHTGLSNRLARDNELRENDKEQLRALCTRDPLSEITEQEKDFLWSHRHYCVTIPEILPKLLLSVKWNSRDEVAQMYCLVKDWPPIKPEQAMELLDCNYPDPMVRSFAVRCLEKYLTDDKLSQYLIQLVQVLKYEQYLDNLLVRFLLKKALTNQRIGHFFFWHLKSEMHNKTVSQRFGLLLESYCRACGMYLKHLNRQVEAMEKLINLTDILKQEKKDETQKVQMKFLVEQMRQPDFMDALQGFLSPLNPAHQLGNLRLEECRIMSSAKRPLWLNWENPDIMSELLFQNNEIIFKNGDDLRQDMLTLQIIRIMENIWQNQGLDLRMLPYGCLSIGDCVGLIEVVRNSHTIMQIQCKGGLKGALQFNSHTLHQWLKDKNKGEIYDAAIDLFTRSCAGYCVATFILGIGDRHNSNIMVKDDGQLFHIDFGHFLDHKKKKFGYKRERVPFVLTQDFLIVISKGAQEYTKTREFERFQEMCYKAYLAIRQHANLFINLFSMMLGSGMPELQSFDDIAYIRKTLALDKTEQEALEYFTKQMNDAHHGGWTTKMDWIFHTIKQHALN
PI3-Kα, sequence (P26450 whole entry partner, the tested form may be a part): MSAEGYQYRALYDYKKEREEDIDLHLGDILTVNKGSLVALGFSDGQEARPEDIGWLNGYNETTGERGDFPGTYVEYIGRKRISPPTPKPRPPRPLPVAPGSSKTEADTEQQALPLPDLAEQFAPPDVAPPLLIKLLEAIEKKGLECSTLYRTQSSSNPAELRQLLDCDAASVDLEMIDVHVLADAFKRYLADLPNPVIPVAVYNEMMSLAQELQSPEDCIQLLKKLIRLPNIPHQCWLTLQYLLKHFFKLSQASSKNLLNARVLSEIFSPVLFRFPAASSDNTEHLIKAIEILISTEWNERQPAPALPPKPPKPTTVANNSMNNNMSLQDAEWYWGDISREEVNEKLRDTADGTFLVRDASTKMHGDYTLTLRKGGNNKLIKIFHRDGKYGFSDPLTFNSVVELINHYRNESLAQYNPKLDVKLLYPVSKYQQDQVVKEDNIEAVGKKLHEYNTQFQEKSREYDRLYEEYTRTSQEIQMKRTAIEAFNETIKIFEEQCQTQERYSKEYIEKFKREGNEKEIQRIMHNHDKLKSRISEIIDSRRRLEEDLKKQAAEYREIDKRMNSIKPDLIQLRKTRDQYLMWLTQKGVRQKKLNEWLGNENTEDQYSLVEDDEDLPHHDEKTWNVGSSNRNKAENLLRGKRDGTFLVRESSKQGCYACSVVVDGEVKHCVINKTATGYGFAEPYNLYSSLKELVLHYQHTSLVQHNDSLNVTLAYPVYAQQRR
mTOR, sequence (P42345 2156-2469): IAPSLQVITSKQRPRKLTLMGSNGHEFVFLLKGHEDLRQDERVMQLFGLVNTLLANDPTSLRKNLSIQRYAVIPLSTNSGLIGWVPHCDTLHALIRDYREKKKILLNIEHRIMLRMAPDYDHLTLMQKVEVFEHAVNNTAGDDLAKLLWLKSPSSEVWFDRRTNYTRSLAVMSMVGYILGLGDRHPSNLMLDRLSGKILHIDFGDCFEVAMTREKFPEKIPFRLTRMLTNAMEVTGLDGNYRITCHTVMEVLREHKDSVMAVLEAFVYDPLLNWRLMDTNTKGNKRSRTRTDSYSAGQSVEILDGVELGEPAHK

By Ki is commonly meant the dissociation constant of the complex between target and ligand, obtained from inhibition or displacement. Broadly, the IC50 is the point on the concentration scale where inhibition reaches its midpoint. `Cn1c(=O)n([C@H]2CC[C@H](O)CC2)c2c3nc(-c4ccc5[nH]ncc5c4)ccc3ncc21` [Compound 267, 1-(trans-4-hydroxycyclohexyl)-8-(1H-indazol-5-yl)-3-methyl-1,3-dihydro-2H-imidazo[4,5-c][1,5]naphthyridin-2-one]: in test [1], the “PI3Ka Ki” value is 0.145 nM. Moreover, in test [2], affinity was put at a Ki of 0.359 nM. In addition, the IC50 in test [3] (setting [4]) was found to be 0.0205 µM.
For the compound `C[C@H](CO)n1c(=O)n(C)c2cnc3ccc(-c4cccc5[nH]ccc45)nc3c21` [Compound 237, 1-[(1R)-2-hydroxy-1-methylethyl]-8-(1H-indo1-4-yl)-3-methyl-1,3-dihydro-2H-imidazo[4,5-c][1,5]naphthyridin-2-one], the “PI3Ka Ki” value in test [1] is 29.6 nM. In test [2], this compound displayed a Ki of 6.66 nM. In addition, the IC50 in test [3] (setting [4]) was 0.0553 µM.
The like results for `CN(C)c1ccc(-c2ccc3ncc4c(c3n2)n(C2CCN(C(N)=O)CC2)c(=O)n4C)cn1` [Compound 197, 4-{8-[6-(dimethylamino)pyridin-3-yl]-3-methyl-2-oxo-2,3-dihydro-1H-imidazo[4,5-c][1,5]naphthyridin-1-yl}piperidine-1-carboxamide] were, in that order, 1.05 nM, 0.444 nM and 0.0358 µM.
The corresponding values for `Cc1ccc(-c2ccc3ncc4c(c3n2)n(C2CCN(CCO)CC2)c(=O)n4C)cn1` [Compound 166, 1-[1-(2-hydroxyethyl)piperidin-4-yl]-3-methyl-8-(6-methylpyridin-3-yl)-1,3-dihydro-2H-imidazo[4,5-c][1,5]naphthyridin-2-one] are 1.77 nM, 17.6 nM and 0.0356 µM.
The corresponding values for `Cc1ccc(-c2ccc3ncc4c(c3n2)n(C2CCN(CC(N)=O)CC2)c(=O)n4C)cn1` [Compound 176, 2-{4-[3-methyl-8-(6-methylpyridin-3-yl)-2-oxo-2,3-dihydro-1H-imidazo[4,5-c][1,5]naphthyridin-1-yl]piperidin-1-yl}acetamide] are 0.882 nM, 1.41 nM and 0.0187 µM.
In the case of `CN(C)c1ccc(-c2ccc3ncc4c(c3n2)n(C2CCOCC2)c(=O)n4C)cn1` [Compound 204, 8-[6-(dimethylamino)pyridin-3-yl]-3-methyl-1-(tetrahydro-2H-pyran-4-yl)-1,3-dihydro-2H-imidazo[4,5-c][1,5]naphthyridin-2-one], the “PI3Ka Ki” value in test [1] is 0.298 nM. For the same compound, the Ki in test [2] is 12.7 nM. In addition, the IC50 in test [3] (setting [4]) came out at 0.029 µM.
The like results for `CN1CCC(n2c(=O)n(C)c3cnc4ccc(-c5cnc6[nH]ncc6c5)nc4c32)CC1` [Compound 263, 3-methyl-1-(1-methylpiperidin-4-yl)-8-(1H-pyrazolo[3,4-b]pyridin-5-yl)-1,3-dihydro-2H-imidazo[4,5-c][1,5]naphthyridin-2-one] were, in that order, 0.282 nM, 5.67 nM and 0.0218 µM.
The like results for `Cn1c(=O)n(C2CCN(C(=O)CO)CC2)c2c3nc(-c4cnc5[nH]ncc5c4)ccc3ncc21` [Compound 262, 1-(1-glycoloylpiperidin-4-yl)-3-methyl-8-(1H-pyrazolo[3,4-b]pyridin-5-yl)-1,3-dihydro-2H-imidazo[4,5-c][1,5]naphthyridin-2-one] were, in that order, 0.32 nM, 4.06 nM and 0.0594 µM.
The like results for `COc1ccc(-c2ccc3ncc4[nH]c(=O)n([C@H]5CC[C@H](O)CC5)c4c3n2)cn1` [Compound 132, 1-(trans-4-hydroxycyclohexyl)-8-(6-methoxypyridin-3-yl)-1,3-dihydro-2H-imidazo[4,5-c][1,5]naphthyridin-2-one] were, in that order, 0.51 nM, 1.39 nM and 0.0468 µM.
On to `CC(C)OC(=O)N1CCC(n2c(=O)n(C)c3cnc4ccc(-c5cnc6ccccc6c5)nc4c32)CC1` [Compound 128, isopropyl 4-(3-methyl-2-oxo-8-quinolin-3-yl-2,3-dihydro-1H-imidazo[4,5-c][1,5]naphthyridin-1-yl)piperidine-1-carboxylate], for which, in test [1], the “PI3Ka Ki” value is 2.89 nM. Besides, the Ki in test [2] came to 9.72 nM. The IC50 in test [3] (setting [5]) is 0.0196 µM.
For `COc1ncc(-c2ccc3ncc4c(c3n2)n(C2CCOCC2)c(=O)n4C)cn1` [Compound 201, 8-(2-methoxypyrimidin-5-yl)-3-methyl-1-(tetrahydro-2H-pyran-4-yl)-1,3-dihydro-2H-imidazo[4,5-c][1,5]naphthyridin-2-one], the “PI3Ka Ki” value in test [1] is 8.96 nM. In test [2], the affinity, expressed as Ki, was 6.42 nM. The IC50 in test [3] (setting [4]) was found to be 0.0989 µM.
The corresponding values for `Cc1ccc(-c2ccc3ncc4c(c3n2)n(C2CCN(c3ncccn3)CC2)c(=O)n4C)cn1` [Compound 165, 3-methyl-8-(6-methylpyridin-3-yl)-1-(1-pyrimidin-2-ylpiperidin-4-yl)-1,3-dihydro-2H-imidazo[4,5-c][1,5]naphthyridin-2-one] are 3.52 nM, 73.2 nM and 0.0414 µM.
The like results for `C[C@H](CO)n1c(=O)n(C)c2cnc3ccc(-c4cnc(N)nc4)nc3c21` [Compound 235, 8-(2-aminopyrimidin-5-yl)-1-[(1R)-2-hydroxy-1-methylethyl]-3-methyl-1,3-dihydro-2H-imidazo[4,5-c][1,5]naphthyridin-2-one] were, in that order, 15.5 nM, 6.99 nM and 0.331 µM.
The like results for `N[C@H]1CC[C@H](n2c(=O)[nH]c3cnc4ccc(-c5cnc6ccccc6c5)nc4c32)CC1` [Compound 192, 1-(trans-4-aminocyclohexyl)-8-quinolin-3-yl-1,3-dihydro-2H-imidazo[4,5-c][1,5]naphthyridin-2-one] were, in that order, 2.21 nM, 3.33 nM and 0.402 µM.
As for `COc1cccc(-c2ccc3ncc4c(c3n2)n(C2CCN(C(=O)CO)CC2)c(=O)n4C)c1` [Compound 276, 1-(1-glycoloylpiperidin-4-yl)-8-(3-methoxyphenyl)-3-methyl-1,3-dihydro-2H-imidazo[4,5-c][1,5]naphthyridin-2-one], the “PI3Ka Ki” value in test [1] is 2.22 nM. In test [2], this compound gave a Ki of 10.2 nM. Further, the IC50 in test [3] (setting [4]) worked out at 0.0304 µM.
The corresponding values for `C[C@@H](O)C(=O)N1CCC(n2c(=O)n(C)c3cnc4ccc(-c5cnc6[nH]ncc6c5)nc4c32)CC1` [Compound 258, 1-{1-[(2R)-2-hydroxypropanoyl]piperidin-4-yl}-3-methyl-8-(1H-pyrazolo[3,4-b]pyridin-5-yl)-1,3-dihydro-2H-imidazo[4,5-c][1,5]naphthyridin-2-one] are 0.11 nM, 0.241 nM and 0.0294 µM.
Take `CNC(=O)N1CCC(n2c(=O)n(C)c3cnc4ccc(-c5ccc(N(C)C)nc5)nc4c32)CC1` [Compound 196, 4-{8-[6-(dimethylamino)pyridin-3-yl]-3-methyl-2-oxo-2,3-dihydro-1H-imidazo[4,5-c][1,5]naphthyridin-1-yl}-N-methylpiperidine-1-carboxamide]: the “PI3Ka Ki” value in test [1] was 0.76 nM. In test [2], this compound had a Ki of 3.01 nM. Also, the IC50 in test [3] (setting [4]) is 0.0243 µM.
The corresponding values for `Cc1ccc(-c2ccc3ncc4c(c3n2)n(C2CCOCC2)c(=O)n4C)cn1` [Compound 200, 3-methyl-8-(6-methylpyridin-3-yl)-1-(tetrahydro-2H-pyran-4-yl)-1,3-dihydro-2H-imidazo[4,5-c][1,5]naphthyridin-2-one] are 1.11 nM, 1.72 nM and 0.0273 µM.
Turning to `Cc1ccc(-c2ccc3ncc4c(c3n2)n([C@H](C)CO)c(=O)n4C)cn1` [Compound 231, 1-[(1R)-2-hydroxy-1-methylethyl]-3-methyl-8-(6-methylpyridin-3-yl)-1,3-dihydro-2H-imidazo[4,5-c][1,5]naphthyridin-2-one], the “PI3Ka Ki” value in test [1] was 13.4 nM. Moreover, the affinity in test [2] corresponds to a Ki of 56.2 nM. In addition, in test [3] (setting [4]), the IC50 turned out to be 0.269 µM.
The like results for `COc1ccc(-c2ccc3ncc4c(c3n2)n([C@@H](C)CO)c(=O)n4C)cn1` [Compound 241, 1-[(1S)-2-hydroxy-1-methylethyl]-8-(6-methoxypyridin-3-yl)-3-methyl-1,3-dihydro-2H-imidazo[4,5-c][1,5]naphthyridin-2-one] were, in that order, 4.08 nM, 28.7 nM and 0.266 µM.
With `CNC(=O)N1CCC(n2c(=O)n(C)c3cnc4ccc(-c5cnc6ccccc6c5)nc4c32)CC1` [Compound 123, N-methyl-4-(3-methyl-2-oxo-8-quinolin-3-yl-2,3-dihydro-1H-imidazo[4,5-c][1,5]naphthyridin-1-yl)piperidine-1-carboxamide], in test [1], the “PI3Ka Ki” value was 1.96 nM. In test [2], this compound yielded a Ki of 4.91 nM. The IC50 in test [3] (setting [5]) amounted to 0.00734 µM.
For the compound `CC(=O)N1CCC(n2c(=O)n(C)c3cnc4ccc(-c5cnn(C)c5)nc4c32)CC1` [Compound 213, 1-(1-acetylpiperidin-4-yl)-3-methyl-8-(1-methyl-1H-pyrazol-4-yl)-1,3-dihydro-2H-imidazo[4,5-c][1,5]naphthyridin-2-one], the “PI3Ka Ki” value in test [1] is 4.09 nM. In test [2], this compound had a Ki of 7.81 nM. Further, in test [3] (setting [4]), the IC50 was 0.133 µM.
As for `COc1ncc(-c2ccc3ncc4c(c3n2)n(-c2ccc(C(C)(C)C#N)cc2)c(=O)n4C)cc1F` [Compound 110, 2-(4-(8-(5-fluoro-6-methoxypyridin-3-yl)-3-methyl-2-oxo-2,3-dihydroimidazo[4,5-c][1,5]naphthyridin-1-yl)phenyl)-2-methylpropanenitrile], in test [1], the “PI3Ka Ki” value was 2.35 nM. In test [2], this compound came in with a Ki of 26.6 nM. In addition, the IC50 in test [3] (setting [4]) was determined as 0.0907 µM.

The record behind these values is patent US8791131B2, “Imidazo[1,5]naphthyridine compounds, their pharmaceutical use and compositions” (Pfizer Inc., priority 2008, dated 2014).
